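96-well plates; 48 h exposure; 5 concentrations. Endpoints by linear interpolation between flanking doses. Not reached: highest tested concentration assigned. GI50: concentration for 50% inhibition of growth. At the TGI there is no net growth.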 Where a SMILES comes first, the peptide text is derived from it. [ ]: non-standard residue; d: D form. The star is where a group is joined. X13 = OC[C@H](CC1CCCCC1)N*; Aib = CC(C)(N)C(=O)O
What was measured:
Assay in all cases: NCI-60 cell line screen, 48 h; in the data active = GI50 below about 0.43 µM; inactive = the rest
M14 melanoma = tested on: M14 melanoma
LOX IMVI melanoma = tested on: LOX IMVI melanoma
MOLT-4 leukemia = tested on: MOLT-4 leukemia
SF-539 CNS = tested on: SF-539 CNS
SK-OV-3 ovarian = tested on: SK-OV-3 ovarian
HCT-15 colon = tested on: HCT-15 colon
HOP-62 NSCLC = tested on: HOP-62 NSCLC
SW-620 colon = tested on: SW-620 colon
MALME-3M melanoma = tested on: MALME-3M melanoma
NCI-H522 lung = tested on: NCI-H522 lung
MDA-MB-231 breast = tested on: MDA-MB-231 breast
BT-549 breast = tested on: BT-549 breast
TK-10 renal = tested on: TK-10 renal
RPMI-8226 leukemia = tested on: RPMI-8226 leukemia
UACC-62 melanoma = tested on: UACC-62 melanoma
HS 578T breast = tested on: HS 578T breast
T-47D breast = tested on: T-47D breast
SF-268 CNS = tested on: SF-268 CNS
EKVX NSCLC = tested on: EKVX NSCLC
PC-3 prostate = tested on: PC-3 prostate
SNB-75 CNS = tested on: SNB-75 CNS
MCF7 breast = tested on: MCF7 breast
SR leukemia = tested on: SR leukemia
UO-31 renal = tested on: UO-31 renal
786-0 renal = tested on: 786-0 renal
HT29 colon = tested on: HT29 colon
K-562 leukemia = tested on: K-562 leukemia
A498 renal = tested on: A498 renal
OVCAR-8 ovarian = tested on: OVCAR-8 ovarian

CC(=O)NC(C)(C)C(=O)N[C@@H](C)C(=O)NC(C)(C)C(=O)N[C@@H](C)C(=O)NC(C)(C)C(=O)N[C@@H](C)C(=O)N[C@@H](CCC(N)=O)C(=O)NC(C)(C)C(=O)N[C@H](C(=O)NC(C)(C)C(=O)NCC(=O)N[C@@H](CC(C)C)C(=O)NC(C)(C)C(=O)N1CCC[C@H]1C(=O)N[C@H](C(=O)NC(C)(C)C(=O)NC(C)(C)C(=O)N[C@@H](CCC(N)=O)C(=O)N[C@@H](CCC(N)=O)C(=O)N[C@H](CO)CC1CCCCC1)C(C)C)C(C)C (Ac-[Aib]A[Aib]A[Aib]AQ[Aib]V[Aib]GL[Aib]PV[Aib][Aib]QQ-X13)
active: GI50 (M14 melanoma) 0.221 µM | GI50 (MALME-3M melanoma) 0.0306 µM | GI50 (MCF7 breast) 0.399 µM | GI50 (HT29 colon) 0.286 µM
> 5 µM: TGI (M14 melanoma) | TGI (LOX IMVI melanoma) | TGI (MOLT-4 leukemia) | TGI (SF-539 CNS) | TGI (SK-OV-3 ovarian) | TGI (HCT-15 colon) | TGI (HOP-62 NSCLC) | TGI (SW-620 colon) | TGI (NCI-H522 lung) | TGI (MDA-MB-231 breast) | TGI (BT-549 breast) | TGI (TK-10 renal) | TGI (UACC-62 melanoma) | TGI (HS 578T breast) | TGI (T-47D breast) | TGI (SF-268 CNS) | TGI (EKVX NSCLC) | TGI (PC-3 prostate) | TGI (SNB-75 CNS) | TGI (MCF7 breast) | TGI (SR leukemia) | TGI (UO-31 renal) | TGI (786-0 renal) | TGI (HT29 colon) | TGI (K-562 leukemia) | TGI (A498 renal)
4 µM: TGI (RPMI-8226 leukemia)
0.239 µM: TGI (MALME-3M melanoma)
inactive: GI50 (LOX IMVI melanoma) 1.56 µM | GI50 (MOLT-4 leukemia) > 5 µM | GI50 (SF-539 CNS) 2.28 µM | GI50 (SK-OV-3 ovarian) > 5 µM | GI50 (HCT-15 colon) > 5 µM | GI50 (HOP-62 NSCLC) > 5 µM | GI50 (SW-620 colon) 1.65 µM | GI50 (NCI-H522 lung) 1.04 µM | GI50 (MDA-MB-231 breast) 2.49 µM | GI50 (BT-549 breast) 1.43 µM | GI50 (TK-10 renal) 3.43 µM | GI50 (RPMI-8226 leukemia) 1.16 µM | GI50 (UACC-62 melanoma) 0.609 µM | GI50 (HS 578T breast) 3.71 µM | GI50 (T-47D breast) 1.26 µM | GI50 (SF-268 CNS) 2.24 µM | GI50 (EKVX NSCLC) 2.29 µM | GI50 (PC-3 prostate) 1.98 µM | GI50 (SNB-75 CNS) 1.07 µM | GI50 (SR leukemia) 3.37 µM | GI50 (UO-31 renal) > 3.96 µM | GI50 (786-0 renal) > 5 µM | GI50 (K-562 leukemia) 2.2 µM | GI50 (A498 renal) > 4.12 µM | GI50 (OVCAR-8 ovarian) > 4.25 µM

— PubChem BioAssay (NCI)
